The values that follow come from US8445030B2 (priority 2009, dated 2013).

The conditions of series [1]: cited from earlier work.
For series [2] the following is noted: same as normal skin (pH 5.4-5.5).
In another series the test system is microorganisms. Description: Antiseptic function of components in CaF2-based formulations (Examples 2-4).
The test system of another series is Microbes. Kind of series: Microbial efficacy and duration of effects of components. Conditions: component of the spray of Example 1.
Setting [3] is: component of Example 2 wound gel.
[4] abbreviates: component of Example 3 hair gel.
The mark [5] stands for this setting: component of Example 4 hand disinfection spray.

Entries after “also recorded” stand apart in the source; their conditions may differ. Like-named read-outs stand apart in the source and are kept apart here. Some results are limits rather than exact numbers.

`[Ca+2].[F-].[F-]` [CaF2 (calcium fluoride), calcium fluoride]: the “LD 50 Oral on Rats” value in series [1] (oral, rats) was 4500 mg/kg. This compound also returned a pH in series [2] of 5.4. Besides, the persistent antiseptic action entry in the series on microorganisms (setting [3]) is recorded as “log 3, persistent”; in the series on microorganisms (setting [4]) it was “log 3, persistent”; in the series on microorganisms (setting [5]), “log 3, persistent”. Further, the “Microbial Efficacy” value in the series with Microbes is “bactericide, virucide,; also recorded: fungicide”.

Take `O=C(O)C=Cc1ccccc1` [Cinnamic acid]: in the series on Microbes, the “Duration of Effects” value is recorded as “short to long” and the “Microbial Efficacy” value was “bactericide, virucide,; also recorded: fungicide”.

As for `O=C(O)CC(O)(CC(=O)O)C(=O)O` [Citric acid], the “Microbial Efficacy” value in the series with Microbes is “bactericide, virucide,; also recorded: fungicide”.

Take `CCO` [Ethanol]: the “fast acting antiseptic action” value in the series with microorganisms (setting [3]) is on record as “log 6, fast acting”; in the series with microorganisms (setting [5]), “log 6, fast acting”.

Turning to `OO` [H2O2 (hydrogen peroxide), hydrogen peroxide], the “LD 50 Oral on Rats” value in series [1] (rat, in vivo, po) is given as 2000 mg/kg. Besides, in the series with Microbes, the “Duration of Effects” value is listed as “short (short = within 60 sec up to max 5 min)” and the “Microbial Efficacy” value is “bactericide, virucide,; also recorded: fungicide”.

For the compound `CC(C)O` [Isopropyl alcohol], in the series with microorganisms (setting [4]), the “fast acting antiseptic action” value is given as “log 6, fast acting”.

Regarding `[Na+].[O-]Cl` [NaOCl (Javel water), NaOCl], in series [1] (oral, rats), the “LD 50 Oral on Rats” value is 2000 mg/kg. Also, the “fast acting antiseptic action” value in the series on microorganisms (setting [5]) is listed as “log 6, fast acting”. Besides, in the series with Microbes, the “Microbial Efficacy” value is recorded as “bactericide, virucide,; also recorded: fungicide”.

As for `O=C(O)[C@]1(O)C[C@@H](O)[C@@H](O)[C@H](O)C1` [Quinic acid], the “LD 50 Oral on Rats” value in series [1] (rat, in vivo, po) is >8000 mg/kg. The “Microbial Efficacy” value in the series with Microbes was “bactericide, virucide,; also recorded: fungicide”.
